# How the values were obtained:
# SFB = SFB DNA in feces by qPCR; format: in vivo, mice
# C. rodentium [1] = test: C. rodentium infection, CFUs in stool; format: in vivo, mice; conditions: day 6 p.i.
# Method: (§1) METHOD DETAILS C. rodentium infections Mice were orally infected with 109 colony-forming units (CFUs) of C. rodentium suspended in sterile PBS. Post-infection CFUs were measured in stool homogenized in 500 μl PBS in a Tissue Lyser II at 30 Hz for 3 min. Homogenates were serially diluted 10-fold on MacConkey agar (BD) and CFUs were counted after 16 hr incubation at 37° C., normalized to fecal weight. For RA studies, mice were orally gavaged with 300 μg RA or vehicle (DMSO) in 100 μl corn oil q.d. 5 days prior to and during the infection. For RAR inhibitor (RARi) studies, 400 μg BMS493 (Torcis Bioscience) suspended in 10% DMSO/corn oil was administered to mice via oral gavage q.o.d. over 6 days pre-infection and 6 days post-infection. For Aldh1a2 inhibition, mice were orally gavaged with 400 mg/kg of WIN 18446 (Cayman Chemical) or vehicle (DMSO) in 100 μl corn oil for 8 days q.o.d.
# bcALDH1A1 = test: Expression of ALDH by B. cereus cultured -/+ ROL; conditions: B. cereus cultured with retinol
# Saa1/2 = Saa1/2 mRNA expression in intestinal organoids; format: cell-based, Murine; conditions: 1 μM WIN 18446
# Method: Intestinal Organoids Murine organoids were generated from ileal IECs isolated from male WT C57BL/6J mice as previously described (Woo et al., 2019; Wu et al., 2020). Dissected terminal ileums (12 cm) were opened longitudinally, scraped to remove intestinal contents and outer cells, washed repeatedly in ice-cold PBS, and cut into 1 cm pieces. Ileum pieces were incubated in Chelation Buffer (2 mM EDTA in PBS) for 30 min at 4° C. with rotation. Tissues were subsequently transferred into new tubes containing Shaking Buffer (PBS, 43.3 mM sucrose, 54.9 mM sorbitol) and gently shaken by hand for 2-4 mins. Ileal crypts were resuspended and plated in Matrigel (Corning) overlaid with 500 μl organoid culture media (60% Advanced DMEM/F12 media supplemented with 10 mM HEPES, 2 mM […], 40% L-WRN conditioned media, 1×N2 supplement, 1×B27 supplement, 50 ng/mL murine EGF, and 10 μM Y-27632 ROCK inhibitor). Culture media was refreshed every 3-4 days. Organoid cultures were treated with 1 μM Aldh1a2 inhibitor WIN 18446 (Cayman Chemical) for 12 hours and then stimulated with 100 μl of SFB contents at 150 mg/ml PBS for 24 hours. For bacterial culture treatments in organoids, 100 μl of liquid cultures were directly added to organoids containing 1 μM retinol for 24 hours. After incubation, organoids were washed 3 times in PBS and lysed using the RNeasy kit (Qiagen).
# mammalian ALDH = test: Aldehyde dehydrogenase activity in mouse tissues; format: in vivo; conditions: liver of mice treated with WIN18446, 400 mg/kg oral gavage q.o.d. 8 days
# Method: as §1, with “For Aldh1a2 inhibition, mice were orally gavaged with 400 mg/kg of WIN 18446 (Cayman Chemical) or vehicle (DMSO) in 100 μl corn oil for 8 days q.o.d.” left out
# Aldehyde dehydrogenase activity Samples were homogenized in ice-cold ALDH assay buffer (Sigma, MAK082) for 3 min at 30 Hz and spun down at 13,000×g for 10 min. ALDH activity was measured according to manufacturer's instructions (Sigma, MAK082). Briefly, 50 μl of supernatants with equal protein concentrations determined using Pierce BCA Protein Assay Kit (Thermo Scientific) were combined with ALDH substrate and acetaldehyde in 96-well plates. […] Enzymatic activity was calculated as a function of amount NADH generated over time.
# [2] = test system: downstream gene expression; test: Relative mRNA expression in liver of WIN18446-treated mice; format: in vivo; conditions: mice treated with WIN18446
# Method: as §1
# C. rodentium [3] = test: C. rodentium in vitro culture, bacterial density (OD600); format: cell-based, Citrobacter rodentium; conditions: 1 nM-10 μM RA
compound,measurement,setting,value
CC1(C)CC=C(C#Cc2ccccc2)c2cc(/C=C/c3ccc(C(=O)O)cc3)ccc21 [BMS493],SFB colonization (SFB DNA in feces),"SFB; RARi (BMS493) treatment, 400 μg oral gavage q.o.d.",did not alter SFB colonization
same,C. rodentium pathogen levels (CFUs in stool),C. rodentium [1]; GF mice treated with RARi,largely unaffected
same,Protective effect of SFB against C. rodentium (CFUs in stool),C. rodentium [1]; SFB-colonized mice treated with RARi,abrogated the protective effect of SFB against C. rodentium
"CC1=C(/C=C/C(C)=C/C=C/C(C)=C/CO)C(C)(C)CCC1 [retinol, all-trans retinol]",bcALDH1A1 expression by B. cereus,bcALDH1A1,increased bcALDH1A1 expression
O=C(NCCCCCCCCNC(=O)C(Cl)Cl)C(Cl)Cl [WIN18446],Basal Saa1/2 expression in intestinal organoids,Saa1/2,decreased basal Saa1/2 expression
same,Mammalian ALDH enzymatic activity,mammalian ALDH,decreased mammalian ALDH enzymatic activity
same,SFB levels in the intestine (SFB DNA in feces),SFB; following WIN18446 administration,similar
same,Downstream gene expression (relative mRNA in liver),[2],decreased
"CC1=C(/C=C/C(C)=C/C=C/C(C)=C/C(=O)O)C(C)(C)CCC1 [RA, all-trans retinoic acid]",C. rodentium growth and viability,C. rodentium [3],not directly impaired
same,Protection against C. rodentium (CFUs in stool),"C. rodentium [1]; GF mice, 300 μg RA oral gavage q.d. prior to and during infection",sufficient to protect GF mice against C. rodentium
same,C. rodentium pathogen levels (CFUs in stool),"C. rodentium [1]; Nos2−/− mice, exogenous RA",did not alter pathogen levels
same,C. rodentium infection (CFUs in stool),"C. rodentium [1]; WT mice, exogenous RA",decreased C. rodentium infection
same,C. rodentium infection (CFUs in stool),"C. rodentium [1]; control dnRAR^FF mice, RA-treatment",decreased infection
same,RA-induced protection against C. rodentium,"C. rodentium [1]; dnRAR^IEC mice, RA-treatment",greatly reduced

# From patent US12138299B2, “Aldehyde dehydrogenase producing bacteria and methods of using same” (Children's Hospital Medical Center, priority 2021, dated 2024)
